In patent EP0414806B1, “HIGH RATIO ACTIVE AGENT:LIPID COMPLEX” (THE LIPOSOME COMPANY, INC., priority 1988, dated 1989):

How the values were obtained:
[1] = Serum levels of cefazolin after a single intravenous dose; format: in vivo, mice
Description: (§1) The antibacterial activity was measured by an agar well diffusion bioassay, though other assays for antibacterial activity or chemical, or immunological assays for the drug substance are known to those skilled in the art. Briefly, the agar well diffusion bioassay used here were performed by cutting wells into an agar such as Trypticaso Soy Agar (Difco., Detroit, MI) that were previously seeded with a test bacteria such as Bacillus subtilis (ATCC #6633). The wells were filled with a small amount of test material here about 50ul of the test sample, and the agar plates were incubated. Bacillus subtilis incubation was for about 16-24 hours at about 35°C. Growth of a bacterial "lawn" around the well was inhibited by antibiotic present in the agar as diffused from the test sample. The diameters of the zones of inhibited growth around the wells were proportional to the concentration of antibiotic in the test sample and were quantitated by comparison with known, standard antibiotic solutions.
Both cephapirin and cefazolin display prolonged activity in serum and activity at a higher level by the cephalosporin:lipid complex preparation as compared to the free drug. […] Extended prophylactic activity in the serum can also be achieved by subcutaneous administration of a cephalosporin:lipid complex antibiotic.
Intravenous injection of a single 100mg/kg dose of free cefazolin dosium in mice results in a mean serum concentration of 8 to 20ug/ml at one hour post dose (Fig. 9).

[2] = system: many susceptible organisms; settings: for many susceptible organisms; cited from earlier work
in vivo = settings: mouse, iv, 924 mg/kg
Description: Contrast agents were tested in mice by injecting a single intravenous dose of free or complexed contrast agent (diatrizoate) via the tail vein. […] The specific activity of the doses were about 10000 c/mg I.

[3] = Tissue distribution of cephapirin activity after intravenous administration (agar well diffusion bioassay); format: in vivo, mice; settings: 200 mg/kg intravenous; for concentration at 1 h / concentration at 3 h / concentration at 7 h / concentration at 10 h / concentration at 24 h: mouse
Description: as §1

[4] = Serum levels of cephapirin activity after subcutaneous or intravenous administration; format: in vivo, mice
Description: as §1
Cephapirin activity in the serum of mice was determined at intervals after subcutaneous or intravenous administration of free or complexed drug. […] Maximal activity was found in the serum of mice given free cephapirin (by either route) at the earliest time points examined (one half to one hour post-injection). […] With a 200 mg/kg dose, serum levels were 10 ug/ml or greater for 24 hours after injection. […]

S. aureus (ATCC #29740) [5] = assay: In vitro minimal inhibitory concentration by micro-titer dilution method; format: cell-based; settings: Staphylococcus aureus, ATCC29740
S. aureus (ATCC #29740) [6] = assay: Staphylococcal Abscess Model; format: in vivo, Mice (out-bred CD-1 males); settings: single dose (200 mg/kg)
Description: Staphylococcal Abscess Model. S. aureus (ATCC #29740) was grown overnight at 30°C in trypticase soy broth. Aliquots of this suspension were frozen at -70°C. […] For use, cultures were thawed and diluted with saline to contain the desired number of colony forming units (CFU) per ml. Mice (out-bred CD-1 males) were injected subcutaneously with 0.1 ml of S. aureus suspension in the abdominal area. Treatment with free or encapsulated drug was given before or after infection. At four days after infection, mice were killed by cervical dislocation, the abscesses were carefully dissected out and their diameters measured.
To determine the effect of treatment on abscess development, mice were given a single intravenous or subcutaneous injection of free or complexed cephapirin at various times before or after injection.

S. aureus = assay: Staphylococcal Septicemia Model; format: in vivo, Mice; settings: for % Survival at 72 hours: 10 mice
Description: Staphylococcal Septicemia Model. The S. aureus inoculum was prepared as for the abscess model. Mice were inoculated intraperitoneally with 2 x 10⁸ CFU in 5% hog/mucin. Treatment was given before or after infection. […]
The effect of free and CHStris cephalosporin:lipid complex cephapirin was compared in an acute staphylococcus septicemia model.

[7] = system: S. typhimurium (ATCC #14028); assay: Salmonella typhimurium Septicemia Model; format: in vivo, Mice; settings: 700 CFU intravenously; treatment on days 2 and 4 post-inoculation; groups of 10
Description: Salmonella typhimurium Septicemia Model: S. typhimurium (ATCC #14028) was grown in trypticase soy broth at 35°C overnight. Aliquots of this suspension were frozen and maintained at -70°C. For use, cultures were thawed and diluted to contain 700 CFU/ml in 0.9% saline. Mice were inoculated intravenously (0.1 ml) via the lateral tail vein. Treatment was given at various times after infection. Mortality was monitored daily for two weeks.
Mice (in groups of 10) that were inoculated intravenously with 700 CFU of S. typhimurium and received no treatment died within 6-8 days after infection (Fig. 11). […] In this case, the cephalosporin:lipid complex preparation was not washed so that 30% of the administered dose was encapsulated.

For cefazolin sodium [free cefazolin], which mean serum concentration ([1]; mouse, in vivo, iv, 100 mg/kg, 1 h) is on record?
Its mean serum concentration is 8000 to 20000 ng/mL.

What about the serum level ([1]; mouse, in vivo, iv, 100 mg/kg, 2 h) of the same compound?
The serum level was “approximately 2 ug/ml”.

What about the serum level ([1]; single 100mg/kg intravenous dose, at 3 hours after administration) of the same compound?
Its serum level is “below the level of detection”.

And the MICp [2]?
Its MICp is “about 0.5 ug (base weight)/ml (plasma or serum)”.

What about the MICt [2] of the same compound?
The MICt was “about 0.5 ug (base weight)/mg (spleen)”.

For `CC(=O)Nc1c(I)c(NC(C)=O)c(I)c(C(=O)O)c1I` [free diatrizoate, diatrizoate], which concentration at 0.5 h (in vivo) is on record?
Its concentration at 0.5 h is 2.8e+06 ng/g.

And the concentration at 1 h (in vivo)?
The concentration at 1 h was 800000 ng/g.

What about the concentration at 1.5 h (in vivo) of the same compound?
The concentration at 1.5 h was 300000 ng/g.

With `CC(=O)OCC1=C(C(=O)O)N2C(=O)[C@@H](NC(=O)CSc3ccncc3)[C@H]2SC1` [Free Cephapirin, cephapirin sodium] as the compound, how does the activity in tissues ([3]; at 3 hours or later) read?
The activity in tissues was “No activity was detected”.

And the concentration at 1 h ([3]; KIDNEY, time 1 (hours after injection), mean of 3 to 5 mice ± S.E.M.)?
The concentration at 1 h was 49000 ± 8000 ng/g.

And the concentration at 3 h ([3]; KIDNEY, mean ± S.E.M.)?
Its concentration at 3 h is less than 500 ng/g.

What about the concentration at 7 h ([3]; KIDNEY, mean ± S.E.M.) of the same compound?
The concentration at 7 h was less than 500 ng/g.

What about the concentration at 10 h ([3]; KIDNEY, mean ± S.E.M.) of the same compound?
The concentration at 10 h was less than 500 ng/g.

What about the concentration at 24 h ([3]; KIDNEY, mean ± S.E.M.) of the same compound?
The concentration at 24 h was less than 500 ng/g.

And the concentration at 1 h ([3]; LIVER, time 1, mean ± S.E.M.)?
Its concentration at 1 h is 46000 ± 12000 ng/g.

What about the concentration at 3 h ([3]; LIVER, mean ± S.E.M.) of the same compound?
The concentration at 3 h was less than 500 ng/g.

And the concentration at 7 h ([3]; LIVER, mean ± S.E.M.)?
The concentration at 7 h was less than 500 ng/g.

And the concentration at 10 h ([3]; LIVER, mean ± S.E.M.)?
The concentration at 10 h was less than 500 ng/g.

What about the concentration at 24 h ([3]; LIVER, mean ± S.E.M.) of the same compound?
Its concentration at 24 h is less than 500 ng/g.

And the concentration at 1 h ([3]; SPLEEN, time 1, mean ± S.E.M.)?
Its concentration at 1 h is less than 500 ng/g.

What about the concentration at 3 h ([3]; SPLEEN, mean ± S.E.M.) of the same compound?
Its concentration at 3 h is less than 500 ng/g.

What about the concentration at 7 h ([3]; SPLEEN, mean ± S.E.M.) of the same compound?
Its concentration at 7 h is less than 500 ng/g.

What about the concentration at 10 h ([3]; SPLEEN, mean ± S.E.M.) of the same compound?
The concentration at 10 h was less than 500 ng/g.

And the concentration at 24 h ([3]; SPLEEN, mean ± S.E.M.)?
Its concentration at 24 h is less than 500 ng/g.

What about the “activity in the serum” value ([4]; at 3 hours or later) of the same compound?
Its value is “no activity was detectable”.

And the “half-life of free drug” value ([4]; serum, both intravenous and sub-cutaneous administration, estimated)?
The value was “approximately 20 minutes”.

What about the MIC (S. aureus (ATCC #29740) [5]) of the same compound?
Its MIC is 0.05 to 0.1 µg/mL.

And the “effect on abscess size” value (S. aureus (ATCC #29740) [6]; four hours before infection (complex: up to four hours before))?
Its value is “no effect on abscess size”.

What about the “effect on abscess size” value (S. aureus (ATCC #29740) [6]; one hour after infection) of the same compound?
The value was “significantly reduces or prevents abscess development”.

What about the “effect on abscess size” value (S. aureus (ATCC #29740) [6]; one hour before infection) of the same compound?
The value was “reduced abscess size slightly”.

And the “% Survival at 72 hours” value (S. aureus; treated subcutaneously -1 hour, 50 mg/kg)?
Its value is 100%.

And the “% Survival at 72 hours” value (S. aureus; treated subcutaneously -1 hour, 100 mg/kg)?
The value was 100%.

And the “% Survival at 72 hours” value (S. aureus; treated subcutaneously -1 hour, 200 mg/kg)?
The value was 100%.

What about the “% Survival at 72 hours” value (S. aureus; treated subcutaneously -4 hour, 50 mg/kg) of the same compound?
The value was 0%.

And the “% Survival at 72 hours” value (S. aureus; treated subcutaneously -4 hour, 100 mg/kg)?
The value was 10%.

What about the “% Survival at 72 hours” value (S. aureus; treated subcutaneously -4 hour, 200 mg/kg) of the same compound?
The value was 0%.

What about the survival (S. aureus; treated subcutaneously at one hour before infection, end of the experiment (14 days)) of the same compound?
The survival was “survived until the end of the experiment”.

What about the survival (S. aureus; treatment at four hours before infection) of the same compound?
Its survival is “no effect on survival”.

What about the survival [7] of the same compound?
Its survival is “did not prolong survival”.
